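Tested at 5 concentrations; 48 h exposure; 96-well plates; endpoints linearly interpolated, else capped at highest concentration. At the GI50, growth is halved. TGI marks complete inhibition of growth.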
What was measured:
Experiment in all cases: NCI anticancer screen, dose series, 48 h
786-0 renal = test system: 786-0 renal
A549 NSCLC = test system: A549 NSCLC
ACHN renal = test system: ACHN renal
BT-549 breast = test system: BT-549 breast
CAKI-1 renal = test system: CAKI-1 renal
CCRF-CEM leukemia = test system: CCRF-CEM leukemia
COLO 205 colon = test system: COLO 205 colon
DU-145 prostate = test system: DU-145 prostate
EKVX NSCLC = test system: EKVX NSCLC
HCC-2998 colon = test system: HCC-2998 colon
HCT-116 colon = test system: HCT-116 colon
HCT-15 colon = test system: HCT-15 colon
HL-60(TB) leukemia = test system: HL-60(TB) leukemia
HOP-62 NSCLC = test system: HOP-62 NSCLC
HOP-92 NSCLC = test system: HOP-92 NSCLC
HS 578T breast = test system: HS 578T breast
HT29 colon = test system: HT29 colon
IGROV1 ovarian = test system: IGROV1 ovarian
K-562 leukemia = test system: K-562 leukemia
KM12 colon = test system: KM12 colon
LOX IMVI melanoma = test system: LOX IMVI melanoma
M14 melanoma = test system: M14 melanoma
MALME-3M melanoma = test system: MALME-3M melanoma
MCF7 breast = test system: MCF7 breast
MDA-MB-231 breast = test system: MDA-MB-231 breast
MDA-MB-435 = test system: MDA-MB-435
MOLT-4 leukemia = test system: MOLT-4 leukemia
NCI-H226 lung = test system: NCI-H226 lung
NCI-H23 lung = test system: NCI-H23 lung
NCI-H460 lung = test system: NCI-H460 lung
NCI-H522 lung = test system: NCI-H522 lung
NCI/ADR-RES ovarian = test system: NCI/ADR-RES ovarian
OVCAR-3 ovarian = test system: OVCAR-3 ovarian
OVCAR-4 ovarian = test system: OVCAR-4 ovarian
OVCAR-5 ovarian = test system: OVCAR-5 ovarian
OVCAR-8 ovarian = test system: OVCAR-8 ovarian
PC-3 prostate = test system: PC-3 prostate
RPMI-8226 leukemia = test system: RPMI-8226 leukemia
RXF 393 renal = test system: RXF 393 renal
SF-268 CNS = test system: SF-268 CNS
SF-295 CNS = test system: SF-295 CNS
SF-539 CNS = test system: SF-539 CNS
SK-MEL-2 melanoma = test system: SK-MEL-2 melanoma
SK-MEL-28 melanoma = test system: SK-MEL-28 melanoma
SK-MEL-5 melanoma = test system: SK-MEL-5 melanoma
SK-OV-3 ovarian = test system: SK-OV-3 ovarian
SN12C renal = test system: SN12C renal
SNB-19 CNS = test system: SNB-19 CNS
SNB-75 CNS = test system: SNB-75 CNS
SR leukemia = test system: SR leukemia
SW-620 colon = test system: SW-620 colon
T-47D breast = test system: T-47D breast
TK-10 renal = test system: TK-10 renal
U251 CNS = test system: U251 CNS
UACC-257 melanoma = test system: UACC-257 melanoma
UACC-62 melanoma = test system: UACC-62 melanoma
UO-31 renal = test system: UO-31 renal

## O=C(CN1CCN(c2cc3c(cc2F)c(=O)c(C(=O)O)cn3C2CC2)CC1)Nc1nc(-c2ccc(Cl)cc2)cs1
786-0 renal
  GI50: 4.24 µM
  TGI: > 100 µM
A549 NSCLC
  GI50: 3.75 µM
  TGI: > 100 µM
ACHN renal
  GI50: 3.05 µM
  TGI: > 100 µM
BT-549 breast
  GI50: 3.85 µM
  TGI: 60.3 µM
CAKI-1 renal
  GI50: 3.57 µM
  TGI: > 100 µM
CCRF-CEM leukemia
  GI50: 4.39 µM
  TGI: > 100 µM
COLO 205 colon
  GI50: 4.82 µM
  TGI: > 100 µM
DU-145 prostate
  GI50: 4.03 µM
  TGI: 28.4 µM
EKVX NSCLC
  GI50: 4.45 µM
  TGI: > 100 µM
HCC-2998 colon
  GI50: 5.17 µM
  TGI: > 100 µM
HCT-116 colon
  GI50: 3.37 µM
  TGI: > 100 µM
HCT-15 colon
  GI50: 3.23 µM
  TGI: 23.7 µM
HL-60(TB) leukemia
  GI50: 2.71 µM
  TGI: 6.29 µM
HOP-62 NSCLC
  GI50: 4.16 µM
  TGI: > 100 µM
HOP-92 NSCLC
  GI50: 2.73 µM
  TGI: 7.91 µM
HS 578T breast
  GI50: 7.19 µM
  TGI: 73.7 µM
HT29 colon
  GI50: 3.43 µM
  TGI: 29.4 µM
IGROV1 ovarian
  GI50: 7.91 µM
  TGI: > 100 µM
K-562 leukemia
  GI50: 2.95 µM
  TGI: > 100 µM
KM12 colon
  GI50: 3.69 µM
  TGI: > 100 µM
LOX IMVI melanoma
  GI50: 3.39 µM
  TGI: 19 µM
M14 melanoma
  GI50: 4.54 µM
  TGI: 28.6 µM
MALME-3M melanoma
  GI50: 3.19 µM
  TGI: 11.1 µM
MCF7 breast
  GI50: 3.06 µM
  TGI: 36.1 µM
MDA-MB-231 breast
  GI50: 5.09 µM
  TGI: 61 µM
MDA-MB-435
  GI50: 3.85 µM
  TGI: 94 µM
MOLT-4 leukemia
  GI50: 3.31 µM
  TGI: > 100 µM
NCI-H226 lung
  GI50: 5 µM
  TGI: > 100 µM
NCI-H23 lung
  GI50: 3.1 µM
  TGI: > 100 µM
NCI-H460 lung
  GI50: 3.03 µM
  TGI: 12.7 µM
NCI-H522 lung
  GI50: 3.15 µM
  TGI: 30.4 µM
NCI/ADR-RES ovarian
  GI50: 5.62 µM
  TGI: > 100 µM
OVCAR-3 ovarian
  GI50: 3.51 µM
  TGI: 17.3 µM
OVCAR-4 ovarian
  GI50: 6.64 µM
  TGI: 98.8 µM
OVCAR-5 ovarian
  GI50: 8.66 µM
  TGI: > 100 µM
OVCAR-8 ovarian
  GI50: 3.26 µM
  TGI: > 100 µM
PC-3 prostate
  GI50: 3.36 µM
  TGI: 29.9 µM
RPMI-8226 leukemia
  GI50: 3.21 µM
  TGI: > 100 µM
RXF 393 renal
  GI50: 4.72 µM
  TGI: > 100 µM
SF-268 CNS
  GI50: 4.19 µM
  TGI: > 100 µM
SF-295 CNS
  GI50: 2.77 µM
  TGI: 29.6 µM
SF-539 CNS
  GI50: 3.93 µM
  TGI: > 100 µM
SK-MEL-2 melanoma
  GI50: 3.12 µM
  TGI: 21 µM
SK-MEL-28 melanoma
  GI50: 3.02 µM
  TGI: 45.8 µM
SK-MEL-5 melanoma
  GI50: 2.76 µM
  TGI: 8.05 µM
SK-OV-3 ovarian
  GI50: 3.24 µM
  TGI: 19.1 µM
SN12C renal
  GI50: 3.69 µM
  TGI: > 100 µM
SNB-19 CNS
  GI50: 4.71 µM
  TGI: > 100 µM
SNB-75 CNS
  GI50: 3.71 µM
  TGI: > 100 µM
SR leukemia
  GI50: 3.58 µM
  TGI: 53.1 µM
SW-620 colon
  GI50: 3.48 µM
  TGI: 16.7 µM
T-47D breast
  GI50: 3.58 µM
  TGI: > 100 µM
TK-10 renal
  GI50: 4.28 µM
  TGI: > 100 µM
U251 CNS
  GI50: 3.74 µM
  TGI: > 100 µM
UACC-257 melanoma
  GI50: 3.94 µM
  TGI: 22.2 µM
UACC-62 melanoma
  GI50: 3.66 µM
  TGI: > 100 µM
UO-31 renal
  GI50: 2.96 µM
  TGI: > 100 µM

Reference: PubChem BioAssay (NCI)
